What was measured:
[1] = test system: MCF-7 (breast cancer); assay: MTT in vitro cytotoxicity assay, MCF-7; format: cell-based, human; details: Homo sapiens, MCF7
Experimental: The synthesized compounds were evaluated for in-vitro cytotoxic activity against various cell lines such as HeLa (cervical cancer), MCF-7 (breast cancer), HL-60 (Human promyelocytic leukemia), HepG2 (Hepatocellular carcinoma) and MCF 12A (normal epithelial cell) by the MTT assay method. […] The relationship between surviving fraction and drug concentration was plotted to obtain the survival curve of all the cancer cell lines HeLa, MCF-7, HL-60 and HepG2. The response parameter calculated was the IC50 values, which responds to the concentration required for 50% inhibition of cell viability. The in-vitro cytotoxic activity of the synthesized compounds is summarized Table 3.
The target compounds were subjected to in vitro cytotoxicity bioassay. In vitro cytotoxicity was determined using a standard MTT assay with protocol appropriate for the individual test system[29]–[31]. The four human cancer cell lines HeLa, MCF-7, HL-60, HepG2 and MCF-12A were cultured in the MEM medium supplemented with 10% FBS, 1% glutamine and […] gentamicin sulfate in a CO2 incubator in a humidified atmosphere of 5% CO2 and 95% air. The test compounds were prepared prior to the experiment by dissolving in 0.1% DMSO and diluted with medium. The cells were then exposed to different concentrations of drugs ([…]) in the volume of […]. Cells in the control wells received the same volume of medium containing 0.1% DMSO. After 24 h, the medium was removed and cell cultures were incubated with […] MTT reagent (1 mg/ml) for 5 h at 37 °C. The known number of cells ([…]) was incubated in a 5% CO2 incubator at 37 °C in the presence of different concentrations of test compounds. After 48 h of drug incubation, the MTT solution was added in each well and absorbance was recorded at 540 nm by an ELISA reader. The experiment was performed in triplicate. Cell survival was calculated as the percentage of MTT inhibition as % growth inhibition = 100 − (mean OD of individual test Group/Mean OD of each Control Group) × 100.

[2] = test system: DMBA induced mammary tumor; assay: DMBA induced mammary tumor in female Sprague-Dawley rats; format: in vivo, rat
From the text: Encouraged by the excellent EGFR-TK inhibitory activity and anticancer effect of compound 7l against breast cancer cells which are further substantiated with docking analysis, prompted us to further analyze the effect of compound 7l in the in-vivo system. Therefore, we have utilized 7,12-Dimethylbenz(a)anthracene (DMBA), a polycyclic aromatic hydrocarbon, to induce the mammary carcinogenesis in the experimental animals to quantify the potential protective effect of compound 7l. The mechanism behind its action to induce the cancer is based on its metabolized product, i.e. the epoxide that readily forms DNA adducts which is responsible for malignant alteration. At the first instance, the effect of compound 7l was analyzed on the effect of body weight of the experimental animals.
Animal model. The female Sprague-Dawley rats (100–120 g) were obtained from the Institutional animal house after approval from the Institutional Animal Ethics Committee. The animals were kept in suitable cages with free access to food and water under a controlled temperature (24 ± 2 °C), humidity (60 ± 10%) with alternate light/dark cycle of 12 h. The entire experimental procedures involving animals were approved by the Institutional Animal Ethics Committees (IAEC) of SHUATS, in accordance and duly approved with CPCSEA (Committee for the Purpose of Control and Supervision of Experiments on Animals, Government of India. The authors confirm that all experiments were performed in accordance with relevant guidelines and regulations of SHUATS.
Initiation of breast carcinogenesis. The mammary carcinogenesis was induced in experimental rat using one-time subcutaneous administration of DMBA (25 mg) in emulsified form with the help of sunflower oil and saline to each rat.
Design of experiment. Experimental design. Total numbers of 30 animals were randomly divided into five groups and each group contains 6 animals. The various groups received different treatment as follows:
The DMBA (s.c.; 25 mg/rat) was administered to each rats near mammary gland at the end of the first week. The test drug was administered once in a day and was continued till the end of the experimental period. At the end of 16th week, the rats were fasted overnight and sacrificed by the cervical decapitation under influence of anesthesia. The blood samples were collected in and after centrifugation, the plasma was used for the further biochemical analysis. The liver and mammary tissues were excised immediately from the experimental rats and homogenized with suitable buffer, centrifuged and the resulting supernatant was used for biochemical estimations.
Biochemical Estimation. The remaining excised liver and mammary tissues were rinsed in ice-cold saline and known amount of the tissue were homogenized in 0.1 M Tris-HCl buffer (pH 7.4) at 4°C. The supernatant was collected as tissue homogenate and was used for the estimation of various biochemical parameters. The microsomal protein concentration was estimated by the method of Lowry et al.[33]; while, the concentration of plasma and mammary TBARS was estimated by the earlier reported method, [35] and the concentration of plasma and mammary tissue LOOH were estimated by the previous method. Moreover, the activity of the antioxidant enzyme system, such as SOD, CAT, GPX, GSH, CYP450, Cyt-b5, GST and GR activity in plasma and mammary tissue were determined by the earlier method given elsewhere[37]–[43].

[3] = test system: p-EGFR and p-Akt levels of MCF-7; assay: Western blot of EGFR activation and downstream signalling in MCF-7; format: cell-based, human; details: immunoblotting, concentration-dependent
From the text: However, despite of excellent inhibitory activity of 7l against the EGFR-TK, its mechanism behind this phenomena has not been elucidate till now, thus, in this part of the study, we are interested in exploring the effect of compound 7l on the activation and downstream signalling pathway of the EGFR. Towards this, the effect of 7l has been determined on the expression of p-EGFR and EGFR, p-Akt and Akt levels of MCF-7 by immunoblotting experiments. Results as presented in Fig. 14 confirmed the effect of 7l on the expression of p-EGFR and p-Akt. […] Results clearly indicate the ability of 7l to inhibit the phosphorylation of EGFR which in turn decreases Akt (the downstream target protein of p-EGFR).
After incubation with the test compound, the cells were harvested and washed with PBS, and then lysed in lysis buffer. After centrifugation at 12,000 × g for 5 min, the supernatant was collected as total protein. The concentration of the protein was determined by a protein assay kit. The protein samples were separated by 10% SDS–PAGE and subsequently electro-transferred onto a PVDF (Millipore, Bedford, MA, USA). […] The antibodies were purchased from Cell Signaling Technology (MA, USA) Thus, the expression of p-EGFR, EGFR, p-Akt (pS473) and Akt were visualized by enhanced chemiluminescence (ECL) (Thermofischer Scientific Inc. USA) kit and band intensity was analyzed by image j software.

[4] = DMBA rats, 5, 10, 15 mg/kg once a day
[5] = liver and mammary tissues of DMBA treated animals
[6] = plasma and mammary tissues of DMBA treated animals

For CCOC(=O)C1=C(C)N(c2nc(Nc3cccc(F)c3)nc(Nc3cccc(F)c3)n2)C(=S)NC1c1ccc(F)cc1 (stereo not shown) [7l, Ethyl 1-(4,6-bis((3-fluorophenyl)amino)-1,3,5-triazin-2-yl)-4-(4-fluorophenyl)-6-methyl-2-thioxo-1,2,3,4-tetrahydropyrimidine-5-carboxylate], the IC50 [1] was 41.5 ± 0.31 µM, the “Percentage of tumour incidence” value [2, 4] was “efficient in reducing the percentage of incidence of tumour” and the Tumour volume [2, 4] was “significant reduction”. For the same compound, the “Body weight of experimental animals” value ([2]; DMBA rats, 5, 10, 15 mg/kg once a day, vs DMBA group) was “significantly improved”, the “Concentration of Phase I enzymes (CYP450 and Cyt-b5)” value [2, 5] was “marked decline” and the “Concentration of Phase II enzymes (GST and GR)” value [2, 5] was “significant upsurge”. For the same compound, the “Antioxidant status (SOD, CAT, GSH, GPx)” value [2, 6] was “significant improvement”, the “Level of TBARS and LOOH (lipid peroxidation)” value [2, 6] was “significant reduction” and the “Level of p-Akt” value [3] was “significantly reduced”. The “Level of p-EGFR” value [3] was “significantly reduced”.

Source: PMC5517562, “Design and discovery of novel monastrol-1,3,5-triazines as potent anti-breast cancer agent via attenuating Epidermal Growth Factor Receptor tyrosine kinase” (Scientific Reports, 2017)
